{"source": "patent US6638954B2", "about": "“Δ2-1,2,3-TRIAZOLINE ANTICONVULSANTS AND THEIR ACTIVE METABOLITE ANALOGUES, THE AMINOALKYLPYRIDINES, ARE EXCITATORY AMINO ACID ANTAGONISTS AND ANTIISCHEMIC AGENTS, USEFUL IN THE TREATMENT OF CEREBRAL ISCHEMIA RESULTING FROM STROKE” (K and K Biosciences, Inc., priority 2000, dated 2003)", "origin": "cited, not measured here", "key": {"amygdala-kindled rats": {"tested_on": "amygdala-kindled rats", "conditions": "non-sedative, non-neurotoxic doses"}, "entorhinal-kindled rats": {"tested_on": "entorhinal-kindled rats", "conditions": "non-sedative, non-neurotoxic doses"}, "[1]": {"tested_on": "N-methyl D-aspartate (NMDA)-induced seizures", "conditions": "mouse"}}, "data": [{"substance": "1-(p-Chlorophenyl)-5-(4-pyridyl)-Δ^2-1,2,3-triazoline [Table IV (2)]", "values": [{"measurement": "ED50, protection against after-discharge seizures and generalized convulsions", "setting": "amygdala-kindled rats", "result": "215 ± 61", "unit": "mg/kg"}, {"measurement": "ED50, protection against after-discharge seizures and generalized convulsions", "setting": "entorhinal-kindled rats", "result": "423 ± 45", "unit": "mg/kg"}, {"measurement": "Protection against NMDA-induced seizures/convulsions", "setting": "[1]", "result": "complete protection"}]}]}
